Experiments:
[1] = tested on: OCI-Ly7; assay: Combination study, ATPLite 72 h, dose matrix (Synergy Score, CI50); conditions: combination with Compound 1, 72 h
[2] = tested on: SU-DHL-4-epst; assay: as above; conditions: combination with Compound 1, 72 h
[3] = tested on: NCI-H929; assay: as above; conditions: combination with Compound 1
[4] = tested on: KARPAS-299; assay: as above; conditions: combination with Compound 1
Procedure: (§1) Cells are thawed from a liquid nitrogen preserved state. Once cells have been expanded and divide at their expected doubling times, screening begins. Cells are seeded in growth media in either black 1536-well or 384-well tissue culture treated plates. Cells are then equilibrated in assay plates via centrifugation and placed in incubators attached to the Dosing Modules at 37° C. for 24 hours before treatment. […] These Tzero (To) plates are read using ultra-sensitive luminescence on Envision plate readers (Perkin Elmer). Treated assay plates are incubated with compound for 72 hours. After 72 hours, plates are developed for endpoint analysis using ATPLite. All data points are collected via automated processes, quality controlled and analyzed using Zalicus software.
(§2) where T is treated cell count and V is untreated (vehicle) cell count (at 72 hours). I ranges from 0% (when T=V) to 100% (when T=0). […] The measure of effect in the experiment can be the inhibition of cellular response relative to the untreated level (vehicle alone). […] The inhibition ranges from 0% at the untreated level to 100% when T=0. Inhibition levels are negative for agents that actually increase levels. Other effect measures, such as an activity ratio r=T/V may be more appropriate for some assays. When activity ratios (e.g, fold increase over stimulated control) are being used, the effect can be measured using an induction 1=ln(T/V). With this definition, all effect expressions are the same as for inhibition.
(§3) Growth Inhibition (GI) is used as a measure of cell viability. […] A GI reading of 100% represents complete growth inhibition—T72 compound-treated and T0 vehicle signals are matched. […] A GI reading of 200% represents complete death of all cells in the culture well. Compounds reaching an activity plateau of GI 200% are considered cytotoxic. GI is calculated by applying the following test and equation:
(§4) Combination analysis data were collected in a 6×6 dose matrix. Synergy is calculated by comparing a combination's response to those of its single compound, against the drug-with-itself dose-additive reference model. Deviations from dose additivity may be assessed visually on an isobologram or numerically with a Combination Index (CI). […] Additive effect is CI=1.0. […] Antagonistic effect is CI>1.0.
(§5) To measure combination effects in excess of Loewe additivity, a scalar measure to characterize the strength of synergistic interaction termed the Synergy Score is devised. The Synergy Score is calculated as:
(§6) The fractional inhibition for each component agent and combination point in the matrix is calculated relative to the median of all vehicle-treated control wells. The Synergy Score equation integrates the experimentally-observed activity volume at each point in the matrix in excess of a model surface numerically derived from the activity of the component agents using the Loewe model for additivity. Additional terms in the Synergy Score equation (above) are used to normalize for various dilution factors used for individual agents and to allow for comparison of synergy scores across an entire experiment. The inclusion of positive inhibition gating or an Idata multiplier removes noise near the zero effect level, and biases results for synergistic interactions at that occur at high activity levels.
(§7) Loewe Volume (Loewe Vol) is used to assess the overall magnitude of the combination interaction in excess of the Loewe additivity model. Loewe Volume is particularly useful when distinguishing synergistic increases in a phenotypic activity (positive Loewe Volume) versus synergistic antagonisms (negative Loewe Volume). […] This model defines additivity as a non-synergistic combination interaction where the combination dose matrix surface should be indistinguishable from either drug crossed with itself.

[5] = tested on: DOHH-2; assay: as above; conditions: combination with Compound 1, 72 h
[6] = tested on: U-2932; assay: as above; conditions: combination with Compound 1, 72 h
[7] = tested on: WSU-NHL; assay: as above; conditions: combination with Compound 1, 72 h
[8] = tested on: OCI-Ly3; assay: as above; conditions: combination with Compound 1; OCI-Ly3; 72 h
[9] = tested on: Jeko-1; assay: as above; conditions: combination with Compound 1
Procedure: as §1, §2, §3, §4, §5, §6, §7

[10] = tested on: Mino; assay: as above; conditions: combination with Compound 1
[11] = tested on: HBL-1; assay: as above; conditions: combination with Compound 1, 72 h
[12] = tested on: GRANTA-519; assay: as above; conditions: combination with Compound 1
[13] = tested on: SU-DHL-10-epst; assay: as above; conditions: combination with Compound 1, 72 h
[14] = as above; conditions: combination with Compound 1; OPM-2
[15] = tested on: OMP-2; assay: as above; conditions: combination with Compound 1; OPM-2
[16] = tested on: Farage; assay: as above; conditions: combination with Compound 1; Farage; 72 h
[17] = tested on: KARPAS-422; assay: as above; conditions: combination with Compound 1, 72 h
[18] = tested on: HH; assay: as above; type: cell-based; conditions: combination with Compound 1
Procedure: The method is described as follows.
Additive effect is CI=1.0. […] Antagonistic effect is CI>1.0.
The Synergy Score is calculated as: […]

[19] = tested on: TMD8; assay: as above; conditions: combination with Compound 1; TMD8; 72 h
[20] = tested on: RL; assay: as above; conditions: combination with Compound 1, 72 h
[21] = tested on: RPMI-8226; assay: as above; conditions: combination with Compound 1

Compound: NC1(c2ccc(-c3nc4ccn5c(=O)[nH]nc5c4cc3-c3ccccc3)cc2)CCC1 [MK-2206, 8-[4-(1-aminocyclobutyl)phenyl]-9-phenyl-2H-[1,2,4]triazolo[3,4-f][1,6]naphthyridin-3-one]
- CI50 growth inhibition [1]: U (U=0.7 to <1)
- CI50 inhibition [1]: W (W=≥1)
- Synergy Score growth inhibition [1]: A1 (A1=0.0001 to <1)
- Synergy Score inhibition [1]: A1 (A1=0.0001 to <1)
- CI50 growth inhibition [2]: S (S=0.01 to <0.5)
- CI50 inhibition [2]: S (S=0.01 to <0.5)
- Synergy Score growth inhibition [2]: A3 (A3=>3)
- Synergy Score inhibition [2]: A3 (A3=>3)
- CI50 growth inhibition [3]: T (T=0.5 to <0.7)
- CI50 inhibition [3]: U (U=0.7 to <1)
- Synergy Score growth inhibition [3]: A3 (A3=>3)
- Synergy Score inhibition [3]: A2 (A2=1 to <3)
- Synergy Score growth inhibition [4]: A1 (A1=0.0001 to <1)
- Synergy Score inhibition [4]: A1 (A1=0.0001 to <1)
- CI50 growth inhibition [5]: S (S=0.01 to <0.5)
- CI50 inhibition [5]: S (S=0.01 to <0.5)
- Synergy Score growth inhibition [5]: A3 (A3=>3)
- Synergy Score inhibition [5]: A3 (A3=>3)
- CI50 growth inhibition [6]: U (U=0.7 to <1)
- CI50 inhibition [6]: U (U=0.7 to <1)
- Synergy Score growth inhibition [6]: A1 (A1=0.0001 to <1)
- Synergy Score inhibition [6]: A1 (A1=0.0001 to <1)
- CI50 growth inhibition [7]: S (S=0.01 to <0.5)
- CI50 inhibition [7]: S (S=0.01 to <0.5)
- Synergy Score growth inhibition [7]: A3 (A3=>3)
- Synergy Score inhibition [7]: A3 (A3=>3)
- CI50 growth inhibition [8]: S (S=0.01 to <0.5)
- CI50 inhibition [8]: W (W=≥1)
- Synergy Score growth inhibition [8]: A2 (A2=1 to <3)
- Synergy Score inhibition [8]: A1 (A1=0.0001 to <1)
- CI50 growth inhibition [9]: S (S=0.01 to <0.5)
- CI50 inhibition [9]: S (S=0.01 to <0.5)
- Synergy Score growth inhibition [9]: A2 (A2=1 to <3)
- Synergy Score inhibition [9]: A2 (A2=1 to <3)
- CI50 growth inhibition [10]: W (W=≥1)
- CI50 inhibition [10]: U (U=0.7 to <1)
- Synergy Score growth inhibition [10]: A1 (A1=0.0001 to <1)
- Synergy Score inhibition [10]: A1 (A1=0.0001 to <1)
- CI50 growth inhibition [11]: T (T=0.5 to <0.7)
- CI50 inhibition [11]: W (W=≥1)
- Synergy Score growth inhibition [11]: A2 (A2=1 to <3)
- Synergy Score inhibition [11]: A1 (A1=0.0001 to <1)
- CI50 growth inhibition [12]: S (S=0.01 to <0.5)
- Synergy Score growth inhibition [12]: A1 (A1=0.0001 to <1)
- Synergy Score inhibition [12]: A1 (A1=0.0001 to <1)
- CI50 growth inhibition [13]: S (S=0.01 to <0.5)
- CI50 inhibition [13]: S (S=0.01 to <0.5)
- Synergy Score growth inhibition [13]: A3 (A3=>3)
- Synergy Score inhibition [13]: A3 (A3=>3)
- CI50 growth inhibition [14]: S (S=0.01 to <0.5)
- CI50 inhibition [15]: U (U=0.7 to <1)
- Synergy Score growth inhibition [15]: A3 (A3=>3)
- Synergy Score inhibition [15]: A2 (A2=1 to <3)
- CI50 growth inhibition [16]: S (S=0.01 to <0.5)
- CI50 inhibition [16]: S (S=0.01 to <0.5)
- Synergy Score growth inhibition [16]: A3 (A3=>3)
- Synergy Score inhibition [16]: A3 (A3=>3)
- CI50 growth inhibition [17]: T (T=0.5 to <0.7)
- CI50 inhibition [17]: S (S=0.01 to <0.5)
- Synergy Score growth inhibition [17]: A2 (A2=1 to <3)
- Synergy Score inhibition [17]: A2 (A2=1 to <3)
- CI50 growth inhibition [18]: S (S=0.01 to <0.5)
- CI50 inhibition [18]: S (S=0.01 to <0.5)
- Synergy Score growth inhibition [18]: A3 (A3=>3)
- Synergy Score inhibition [18]: A2 (A2=1 to <3)
- CI50 growth inhibition [19]: S (S=0.01 to <0.5)
- CI50 inhibition [19]: S (S=0.01 to <0.5)
- Synergy Score growth inhibition [19]: A3 (A3=>3)
- Synergy Score inhibition [19]: A3 (A3=>3)
- CI50 growth inhibition [20]: S (S=0.01 to <0.5)
- CI50 inhibition [20]: S (S=0.01 to <0.5)
- Synergy Score growth inhibition [20]: A3 (A3=>3)
- Synergy Score inhibition [20]: A3 (A3=>3)
- CI50 growth inhibition [21]: U (U=0.7 to <1)
- CI50 inhibition [21]: U (U=0.7 to <1)
- Synergy Score growth inhibition [21]: A2 (A2=1 to <3)
- Synergy Score inhibition [21]: A1 (A1=0.0001 to <1)

Compound: O=C(NOC[C@H](O)CO)c1ccc(F)c(F)c1Nc1ccc(I)cc1F [PD0325901]
- Synergy Score growth inhibition [1]: A1 (A1=0.0001 to <1)
- Synergy Score inhibition [1]: A1 (A1=0.0001 to <1)
- CI50 growth inhibition [2]: S (S=0.01 to <0.5)
- CI50 inhibition [2]: T (T=0.5 to <0.7)
- Synergy Score growth inhibition [2]: A2 (A2=1 to <3)
- Synergy Score inhibition [2]: A2 (A2=1 to <3)
- CI50 growth inhibition [3]: S (S=0.01 to <0.5)
- CI50 inhibition [3]: U (U=0.7 to <1)
- Synergy Score growth inhibition [3]: A3 (A3=>3)
- Synergy Score inhibition [3]: A2 (A2=1 to <3)
- CI50 growth inhibition [4]: S (S=0.01 to <0.5)
- Synergy Score growth inhibition [4]: A2 (A2=1 to <3)
- Synergy Score inhibition [4]: A1 (A1=0.0001 to <1)
- CI50 growth inhibition [5]: W (W=≥1)
- CI50 inhibition [5]: W (W=≥1)
- Synergy Score growth inhibition [5]: A1 (A1=0.0001 to <1)
- Synergy Score inhibition [5]: A1 (A1=0.0001 to <1)
- CI50 growth inhibition [6]: U (U=0.7 to <1)
- Synergy Score growth inhibition [6]: A2 (A2=1 to <3)
- Synergy Score inhibition [6]: A1 (A1=0.0001 to <1)
- CI50 growth inhibition [7]: S (S=0.01 to <0.5)
- CI50 inhibition [7]: S (S=0.01 to <0.5)
- Synergy Score growth inhibition [7]: A3 (A3=>3)
- Synergy Score inhibition [7]: A3 (A3=>3)
- CI50 growth inhibition [8]: S (S=0.01 to <0.5)
- Synergy Score growth inhibition [8]: A2 (A2=1 to <3)
- Synergy Score inhibition [8]: A1 (A1=0.0001 to <1)
- CI50 growth inhibition [9]: U (U=0.7 to <1)
- Synergy Score growth inhibition [9]: A1 (A1=0.0001 to <1)
- Synergy Score inhibition [9]: A1 (A1=0.0001 to <1)
- CI50 growth inhibition [10]: S (S=0.01 to <0.5)
- CI50 inhibition [10]: S (S=0.01 to <0.5)
- Synergy Score growth inhibition [10]: A3 (A3=>3)
- Synergy Score inhibition [10]: A3 (A3=>3)
- CI50 growth inhibition [11]: T (T=0.5 to <0.7)
- Synergy Score growth inhibition [11]: A2 (A2=1 to <3)
- Synergy Score inhibition [11]: A1 (A1=0.0001 to <1)
- CI50 growth inhibition [12]: S (S=0.01 to <0.5)
- Synergy Score growth inhibition [12]: A3 (A3=>3)
- Synergy Score inhibition [12]: A2 (A2=1 to <3)
- CI50 growth inhibition [13]: S (S=0.01 to <0.5)
- CI50 inhibition [13]: S (S=0.01 to <0.5)
- Synergy Score growth inhibition [13]: A3 (A3=>3)
- Synergy Score inhibition [13]: A2 (A2=1 to <3)
- CI50 growth inhibition [14]: U (U=0.7 to <1)
- CI50 inhibition [15]: W (W=≥1)
- Synergy Score growth inhibition [15]: A3 (A3=>3)
- Synergy Score inhibition [15]: A2 (A2=1 to <3)
- CI50 growth inhibition [16]: W (W=≥1)
- CI50 inhibition [16]: W (W=≥1)
- Synergy Score growth inhibition [16]: A2 (A2=1 to <3)
- Synergy Score inhibition [16]: A1 (A1=0.0001 to <1)
- CI50 growth inhibition [17]: S (S=0.01 to <0.5)
- CI50 inhibition [17]: T (T=0.5 to <0.7)
- Synergy Score growth inhibition [17]: A2 (A2=1 to <3)
- Synergy Score inhibition [17]: A2 (A2=1 to <3)
- CI50 growth inhibition [18]: W (W=≥1)
- CI50 inhibition [18]: U (U=0.7 to <1)
- Synergy Score growth inhibition [18]: A2 (A2=1 to <3)
- Synergy Score inhibition [18]: A1 (A1=0.0001 to <1)
- CI50 growth inhibition [19]: U (U=0.7 to <1)
- CI50 inhibition [19]: U (U=0.7 to <1)
- Synergy Score growth inhibition [19]: A3 (A3=>3)
- Synergy Score inhibition [19]: A3 (A3=>3)
- Synergy Score growth inhibition [20]: A1 (A1=0.0001 to <1)
- Synergy Score inhibition [20]: A1 (A1=0.0001 to <1)
- CI50 growth inhibition [21]: U (U=0.7 to <1)
- Synergy Score growth inhibition [21]: A2 (A2=1 to <3)
- Synergy Score inhibition [21]: A2 (A2=1 to <3)

Reference: patent US20240325398A1, “COMBINATION THERAPIES” (Infinity Pharmaceuticals, Inc., priority 2014, published 2024)
